Measured values published in ChEMBL document CHEMBL4330134, “Design, synthesis, and bioevaluation of a novel class of (E)-4-oxo-crotonamide derivatives as potent antituberculosis agents” (Bioorg Med Chem Lett, 2019).
Values after ≈ are worked out from the molar mass of the structure shown.

System: Mycobacterium tuberculosis
Assay: Antimycobacterial activity against Mycobacterium tuberculosis H37Rv ATCC 27294 after 4 days by microplate Alamar blue assay
Assay type: functional
Details: H37Rv ATCC 27294, 96 h

| SMILES | MIC |
| --- | --- |
| CCN(C)C(=O)/C=C/C(=O)c1ccccc1[N+](=O)[O-] | 0.24 µg/mL (≈ 0.915 µM) |
| CCCN(CCC)C(=O)/C=C/C(=O)c1ccc(OCC)cc1 | 1.91 µg/mL (≈ 6.3 µM) |
| CCN(C)C(=O)/C=C/C(=O)c1cccc(C(F)(F)F)c1 | > 2 µg/mL |
| CCN(C)C(=O)/C=C/C(=O)c1cccc(OC)c1 | 1.88 µg/mL (≈ 7.6 µM) |
| CC(C)(C)OC(=O)NCCOC(=O)/C=C/C(=O)c1ccc2c(c1)CCO2 | > 4 µg/mL |
| CCOc1ccc(C(=O)/C=C/C(=O)N(C)CC)cc1 | 0.48 µg/mL (≈ 1.84 µM) |
| CN(C)C(=O)/C=C/C(=O)c1cccc(C(F)(F)F)c1 | 1.95 µg/mL (≈ 7.19 µM) |
| COc1ccc(C(=O)/C=C/C(=O)N(C)C)cc1 | 0.38 µg/mL (≈ 1.63 µM) |
| CN(C)C(=O)/C=C/C(=O)c1cccc(F)c1 | 1.84 µg/mL (≈ 8.32 µM) |
| CC(C)(C)OC(=O)NCCOC(=O)/C=C/C(=O)c1ccc(-c2ccccc2)cc1 | 1.23 µg/mL (≈ 3.11 µM) |
| CCN(C)C(=O)/C=C/C(=O)c1cccc(Br)c1 | 1.52 µg/mL (≈ 5.13 µM) |
| COc1ccccc1C(=O)/C=C/C(=O)N(C)C | 0.92 µg/mL (≈ 3.94 µM) |
| CC(C)OC(=O)/C=C/C(=O)c1ccc2c(c1)CCO2 | 1.02 µg/mL (≈ 3.92 µM) |
| CN(C)C(=O)/C=C/C(=O)c1ccccc1F | 0.95 µg/mL (≈ 4.29 µM) |
| CN(C)C(=O)/C=C/C(=O)c1ccc(F)cc1 | 0.47 µg/mL (≈ 2.12 µM) |
| COc1ccc(OC)c(C(=O)/C=C/C(=O)OCCNC(=O)OC(C)(C)C)c1 | > 4 µg/mL |
| CC(C)OC(=O)/C=C/C(=O)c1ccc([N+](=O)[O-])cc1 | 0.5 µg/mL (≈ 1.9 µM) |
| Cc1ccc(C(=O)/C=C/C(=O)OC(C)C)cc1 | 0.77 µg/mL (≈ 3.31 µM) |
| CCOc1ccc(C(=O)/C=C/C(=O)N(C)C)cc1 | 0.48 µg/mL (≈ 1.94 µM) |
| CCOC(=O)/C=C/C(=O)c1ccc(OCc2ccccc2)cc1 | 0.96 µg/mL (≈ 3.09 µM) |
| CC(C)(C)OC(=O)NCCOC(=O)/C=C/C(=O)c1ccc([N+](=O)[O-])cc1 | > 4 µg/mL |
| CCN(C)C(=O)/C=C/C(=O)c1ccc([N+](=O)[O-])cc1 | 1.7 µg/mL (≈ 6.48 µM) |

| SMILES | MIC |
| --- | --- |
| CCOC(=O)/C=C/C(=O)c1ccc(-c2ccccc2)cc1 | 0.23 µg/mL (≈ 0.82 µM) |
| CCCN(CCC)C(=O)/C=C/C(=O)c1ccccc1F | 0.94 µg/mL (≈ 3.39 µM) |
| CCCN(CCC)C(=O)/C=C/C(=O)c1ccccc1[N+](=O)[O-] | 1.24 µg/mL (≈ 4.07 µM) |
| Cc1ccc(C(=O)/C=C/C(=O)OCCNC(=O)OC(C)(C)C)cc1 | > 4 µg/mL |
| CN(C)C(=O)/C=C/C(=O)c1ccccc1Cl | 0.84 µg/mL (≈ 3.53 µM) |
| CN(C)C(=O)/C=C/C(=O)c1ccccc1[N+](=O)[O-] | 1.51 µg/mL (≈ 6.08 µM) |
| CC(C)(C)OC(=O)NCCOC(=O)/C=C/C(=O)c1ccc2c(c1)OCO2 | > 4 µg/mL |
| CCN(C)C(=O)/C=C/C(=O)c1ccc(-c2ccccc2)cc1 | 0.49 µg/mL (≈ 1.67 µM) |
| CC(C)(C)OC(=O)NCCOC(=O)/C=C/C(=O)c1ccc(OCc2ccccc2)cc1 | 1.91 µg/mL (≈ 4.49 µM) |
| CCCN(CCC)C(=O)/C=C/C(=O)c1cccc(Cl)c1 | 1.91 µg/mL (≈ 6.5 µM) |
| CCOC(=O)/C=C/C(=O)c1cccc2ccccc12 | 0.61 µg/mL (≈ 2.4 µM) |
| CCN(C)C(=O)/C=C/C(=O)c1ccc(Cl)cc1Cl | > 2 µg/mL |
| COc1ccccc1C(=O)/C=C/C(=O)OC(C)C | 1.91 µg/mL (≈ 7.69 µM) |
| CC(C)(C)OC(=O)NCCOC(=O)/C=C/C(=O)C1CCCCC1 | > 4 µg/mL |
| CCOC(=O)/C=C/C(=O)c1ccc([N+](=O)[O-])cc1 | 0.48 µg/mL (≈ 1.93 µM) |
| CCN(C)C(=O)/C=C/C(=O)c1ccccc1F | 0.24 µg/mL (≈ 1.02 µM) |
| CCN(C)C(=O)/C=C/C(=O)c1ccc(OC)cc1 | 0.93 µg/mL (≈ 3.76 µM) |
| CCN(C)C(=O)/C=C/C(=O)c1cccc(Cl)c1 | 0.97 µg/mL (≈ 3.85 µM) |
| CC(C)OC(=O)/C=C/C(=O)c1ccccc1 | 0.78 µg/mL (≈ 3.57 µM) |
| CN(C)C(=O)/C=C/C(=O)c1ccc(Br)cc1 | 0.25 µg/mL (≈ 0.886 µM) |
| CC(C)OC(=O)/C=C/C(=O)c1ccc2c(c1)OCO2 | 0.87 µg/mL (≈ 3.32 µM) |
| COc1ccc(OC)c(C(=O)/C=C/C(=O)OC(C)C)c1 | 1.48 µg/mL (≈ 5.32 µM) |

| SMILES | MIC |
| --- | --- |
| CCCN(CCC)C(=O)/C=C/C(=O)c1cccc(F)c1 | 0.96 µg/mL (≈ 3.46 µM) |
| CCCN(CCC)C(=O)/C=C/C(=O)c1cccc([N+](=O)[O-])c1 | > 2 µg/mL |
| CC(C)OC(=O)/C=C/C(=O)c1ccc(-c2ccccc2)cc1 | 0.24 µg/mL (≈ 0.815 µM) |
| COc1cccc(C(=O)/C=C/C(=O)OC(C)C)c1 | 0.92 µg/mL (≈ 3.71 µM) |
| CCN(C)C(=O)/C=C/C(=O)c1ccccc1OC | 0.95 µg/mL (≈ 3.84 µM) |
| CN(C)C(=O)/C=C/C(=O)c1ccc(Cl)cc1Cl | 0.41 µg/mL (≈ 1.51 µM) |
| CCN(C)C(=O)/C=C/C(=O)c1ccc(Cl)cc1 | 0.24 µg/mL (≈ 0.953 µM) |
| CN(C)C(=O)/C=C/C(=O)c1ccc(Cl)c(Cl)c1 | 0.84 µg/mL (≈ 3.09 µM) |
| CCOC(=O)/C=C/C(=O)c1ccc(Br)cc1 | 0.52 µg/mL (≈ 1.84 µM) |
| CCCN(CCC)C(=O)/C=C/C(=O)c1ccc(OC)cc1 | 1.89 µg/mL (≈ 6.53 µM) |
| CN(C)C(=O)/C=C/C(=O)c1cccc([N+](=O)[O-])c1 | > 2 µg/mL |
| CCOC(=O)/C=C/C(=O)C1CCCCC1 | > 4 µg/mL |
| CC(C)OC(=O)/C=C/C(=O)c1ccc(OCc2ccccc2)cc1 | 1.14 µg/mL (≈ 3.51 µM) |
| CC(C)(C)OC(=O)NCCOC(=O)/C=C/C(=O)c1ccc(Oc2ccccc2)cc1 | > 4 µg/mL |
| CC(C)(C)OC(=O)NCCOC(=O)/C=C/C(=O)c1ccc(Br)cc1 | > 4 µg/mL |
| CN(C)C(=O)/C=C/C(=O)c1ccc2c(c1)OCO2 | 0.79 µg/mL (≈ 3.2 µM) |
| COc1ccc(C(=O)/C=C/C(=O)OC(C)C)cc1 | 1.64 µg/mL (≈ 6.61 µM) |
| CC(C)OC(=O)/C=C/C(=O)c1ccc(Br)cc1 | 0.41 µg/mL (≈ 1.38 µM) |
| COc1ccc(C(=O)/C=C/C(=O)OCCNC(=O)OC(C)(C)C)cc1 | > 4 µg/mL |
| CCCN(CCC)C(=O)/C=C/C(=O)c1ccc(Cl)c(Cl)c1 | 0.88 µg/mL (≈ 2.68 µM) |
| COc1ccc(C(=O)/C=C/C(=O)OCCNC(=O)OC(C)(C)C)cc1OC | > 4 µg/mL |
| CC(C)OC(=O)/C=C/C(=O)C1CC1 | 0.68 µg/mL (≈ 3.73 µM) |

| SMILES | MIC |
| --- | --- |
| CC(=O)/C=C/C(=O)OC(C)C | 2.5 µg/mL (≈ 16 µM) |
| CCCN(CCC)C(=O)/C=C/C(=O)c1ccc([N+](=O)[O-])cc1 | 1.89 µg/mL (≈ 6.21 µM) |
| CCN(C)C(=O)/C=C/C(=O)c1ccc(Cl)c(Cl)c1 | 0.24 µg/mL (≈ 0.839 µM) |
| CCN(C)C(=O)/C=C/C(=O)c1ccccc1Cl | 0.65 µg/mL (≈ 2.58 µM) |
| CCN(C)C(=O)/C=C/C(=O)c1ccc(F)cc1 | 0.25 µg/mL (≈ 1.06 µM) |
| CCN(C)C(=O)/C=C/C(=O)c1ccc2c(c1)OCO2 | > 2 µg/mL |
| COc1cccc(C(=O)/C=C/C(=O)N(C)C)c1 | 1.62 µg/mL (≈ 6.94 µM) |
| CC(=O)/C=C/C(=O)OCCNC(=O)OC(C)(C)C | > 4 µg/mL |
| CCOC(=O)/C=C/C(=O)C1CC1 | > 4 µg/mL |
| CCCN(CCC)C(=O)/C=C/C(=O)c1ccccc1OC | > 2 µg/mL |
| CN(C)C(=O)/C=C/C(=O)c1cccc(Br)c1 | 0.96 µg/mL (≈ 3.4 µM) |
| CCOc1ccc(C(=O)/C=C/C(=O)OC(C)C)cc1 | 0.47 µg/mL (≈ 1.79 µM) |
| CCCN(CCC)C(=O)/C=C/C(=O)c1ccc(F)cc1 | 0.95 µg/mL (≈ 3.43 µM) |
| CC(C)(C)OC(=O)NCCOC(=O)/C=C/C(=O)C1CC1 | 1.45 µg/mL (≈ 5.12 µM) |
| CCCN(CCC)C(=O)/C=C/C(=O)c1cccc(C(F)(F)F)c1 | > 2 µg/mL |
| COc1ccc(C(=O)/C=C/C(=O)OC(C)C)cc1OC | 1.94 µg/mL (≈ 6.97 µM) |
| CCOC(=O)/C=C/C(C)=O | 3.51 µg/mL (≈ 24.7 µM) |
| CC(C)OC(=O)/C=C/C(=O)c1cccc2ccccc12 | 0.69 µg/mL (≈ 2.57 µM) |
| CN(C)C(=O)/C=C/C(=O)c1ccc([N+](=O)[O-])cc1 | 0.93 µg/mL (≈ 3.75 µM) |
| CC(C)(C)OC(=O)NCCOC(=O)/C=C/C(=O)c1cccc2ccccc12 | > 4 µg/mL |
| CCN(C)C(=O)/C=C/C(=O)c1cccc([N+](=O)[O-])c1 | > 2 µg/mL |
| CCOC(=O)/C=C/C(=O)c1ccco1 | 1.09 µg/mL (≈ 5.61 µM) |

| SMILES | MIC |
| --- | --- |
| CC(C)OC(=O)/C=C/C(=O)c1ccc(Cl)cc1Cl | 1.01 µg/mL (≈ 3.52 µM) |
| COc1ccccc1C(=O)/C=C/C(=O)OCCNC(=O)OC(C)(C)C | > 4 µg/mL |
| CCCN(CCC)C(=O)/C=C/C(=O)c1ccc(Cl)cc1 | 1.67 µg/mL (≈ 5.68 µM) |
| CCOC(=O)/C=C/C(=O)c1ccc(Oc2ccccc2)cc1 | 1.52 µg/mL (≈ 5.13 µM) |
| CCOC(=O)/C=C/C(=O)c1ccc(Cl)cc1Cl | 1.09 µg/mL (≈ 3.99 µM) |
| CCOc1ccc(C(=O)/C=C/C(=O)OCCNC(=O)OC(C)(C)C)cc1 | 1.45 µg/mL (≈ 3.99 µM) |
| CC(C)(C)OC(=O)NCCOC(=O)/C=C/C(=O)c1ccco1 | > 4 µg/mL |
| CCCN(CCC)C(=O)/C=C/C(=O)c1ccc(Cl)cc1Cl | > 2 µg/mL |
| CCCN(CCC)C(=O)/C=C/C(=O)c1ccc(-c2ccccc2)cc1 | 1.4 µg/mL (≈ 4.17 µM) |
| CCCN(CCC)C(=O)/C=C/C(=O)c1cccc(OC)c1 | > 2 µg/mL |
| CC(C)OC(=O)/C=C/C(=O)c1ccc(Oc2ccccc2)cc1 | 1.69 µg/mL (≈ 5.45 µM) |
| CC(C)(C)OC(=O)NCCOC(=O)/C=C/C(=O)c1ccccc1 | > 4 µg/mL |
| CCCN(CCC)C(=O)/C=C/C(=O)c1ccccc1Cl | > 2 µg/mL |
| CC(C)OC(=O)/C=C/C(=O)c1ccco1 | 0.65 µg/mL (≈ 3.12 µM) |
| CN(C)C(=O)/C=C/C(=O)c1ccc(Cl)cc1 | 0.38 µg/mL (≈ 1.6 µM) |
| CN(C)C(=O)/C=C/C(=O)c1cccc(Cl)c1 | 0.89 µg/mL (≈ 3.74 µM) |
| COc1cccc(C(=O)/C=C/C(=O)OCCNC(=O)OC(C)(C)C)c1 | > 4 µg/mL |
| CC(C)OC(=O)/C=C/C(=O)C1CCCCC1 | > 4 µg/mL |
| CCN(C)C(=O)/C=C/C(=O)c1cccc(F)c1 | 0.48 µg/mL (≈ 2.04 µM) |
| CC(C)(C)OC(=O)NCCOC(=O)/C=C/C(=O)c1ccc(Cl)cc1Cl | > 4 µg/mL |
| CCCN(CCC)C(=O)/C=C/C(=O)c1cccc(Br)c1 | > 2 µg/mL |
| CCCN(CCC)C(=O)/C=C/C(=O)c1ccc2c(c1)OCO2 | > 2 µg/mL |
